{"source": "patent US10035799B2", "about": "“COMT inhibiting methods and compositions” (Lieber Institute for Brain Development, priority 2015, dated 2018)", "data": [{"target": "T1, catechol-O-methyltransferase (COMT) (Homo sapiens, UniProt P21964)", "T1 construct": "M51A variant) was expressed in HEK 293F cells", "T1 sequence (P21964 52-271 limits assumed)": "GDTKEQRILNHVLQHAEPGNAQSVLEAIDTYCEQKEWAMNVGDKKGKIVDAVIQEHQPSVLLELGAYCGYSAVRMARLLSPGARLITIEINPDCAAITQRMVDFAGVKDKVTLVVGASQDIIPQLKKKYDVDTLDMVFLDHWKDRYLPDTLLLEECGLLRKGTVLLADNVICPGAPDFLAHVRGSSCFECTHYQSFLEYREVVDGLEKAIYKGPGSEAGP", "assay": "COMT inhibition assay (HTRF, production of S-adenosyl homocysteine)", "type": "biochemical", "conditions": "recombinant human COMT, HTRF SAH production; MB-COMT or S-COMT not stated for Table 1", "description": "The ability of compounds to inhibit the activity of catechol-O-methyltransferase (COMT) was determined by a homogenous time-resolved fluorescent (HTRF) assay (Lina et al, 2012; kit from CisBio, Codolet, France). This assay measures the production of S-adenosyl homocysteine (SAH) from the methyl donor S-adenosyl methionine. Recombinant human membrane bound COMT (MB-COMT; M51A variant) was expressed in HEK 293F cells using 293Fectin (Life Technologies, Gent, Belgium) and membranes prepared. The membranes were re-suspended in buffer (20 mM Tris/HCl pH 7; 10 mM glycerol; 2 mM MgCl2; 10 mM NaCl), aliquoted and stored at −80° C. Recombinant human soluble COMT(S-COMT), Va1158 variant and a hexa-His tag on the N-terminus, was purified using Ni-NTA chromatography, the His tag removed and stored in buffer as above.\nFor the human MB-COMT assay, membranes (62 ng/well) were incubated with SAM (20 μM final, CisBio) and dopamine (1.5 μM final; Sigma H8502, Diegem, Belgium) in the presence or absence of varying concentrations (typically 10 concentrations ranging from 10 μM to 0.1 nM) of compound for 40 min at 37° C. in 384-well microtitre plates (10 μl per well final volume). The reaction was terminated by the addition of acylation buffer and the amount of SAH produced determined according to manufacturer's instructions. Specific inhibition as that inhibited by a high concentration of tolcapone (10 μM; synthesised at UCB) and all experiments were validated using a control curve to tolcapone.\nThe human S-COMT assay was performed as above except that 0.15 ng enzyme/well was incubated with SAM (20 μM final) and dopamine (100 μM final) for 15 min at 37° C. and SAH production determined.\nHTRF readings were performed using a Perkin Elmer Envision and results expressed as concentration of SAH produced using a standard curve. Results were analysed using non-linear regression to the 4-parameter logistic equation and pIC50 (−log 10 concentration of drug which inhibits enzyme activity/SAH production by 50%) determined.", "values": [{"smiles": "O=S(=O)(c1ccc(O)c2ncccc12)N1CCCC1c1cccnc1", "note": "(stereo not drawn) [Example 72, 5-[2-(3-pyridyl)pyrrolidin-1-yl]sulfonylquinolin-8-ol]", "Activity range (pIC50, COMT inhibition)": "++ (a pIC50 of from about great than 6 to 7)"}, {"smiles": "Cc1cc(F)ccc1S(=O)(=O)c1ccc(O)c2ncccc12", "note": "[Example 20, 5-(4-fluoro-2-methyl-phenyl)sulfonylquinolin-8-ol]", "Activity range (pIC50, COMT inhibition)": "+++ (a pIC50 of above about 7)"}, {"smiles": "CC(C)C1CCCN1S(=O)(=O)c1ccc(O)c2ncccc12", "note": "(stereo not drawn) [Example 78, 5-(2-isopropylpyrrolidin-1-yl)sulfonylquinolin-8-ol]", "Activity range (pIC50, COMT inhibition)": "+++ (a pIC50 of above about 7)"}, {"smiles": "C[C@@H]1CCCN1S(=O)(=O)c1cc(Cl)c(O)c2ncccc12", "note": "[Example 119, 7-chloro-5-[(2R)-2-methylpyrrolidin-1-yl]sulfonyl-quinolin-8-ol]", "Activity range (pIC50, COMT inhibition)": "++ (a pIC50 of from about great than 6 to 7)"}, {"smiles": "CC(C)CC1CCCN1S(=O)(=O)c1ccc(O)c2ncccc12", "note": "(stereo not drawn) [Example 82, 5-(2-isobutylpyrrolidin-1-yl)sulfonylquinolin-8-ol]", "Activity range (pIC50, COMT inhibition)": "+++ (a pIC50 of above about 7)"}, {"smiles": "O=S(=O)(c1ccc(O)c2ncccc12)N1CCCCC1c1ccccc1", "note": "(stereo not drawn) [Example 61, 5-[(2-phenyl-1-piperidyl)sulfonyl]quinolin-8-ol]", "Activity range (pIC50, COMT inhibition)": "++ (a pIC50 of from about great than 6 to 7)"}, {"smiles": "CN(Cc1ccc(C(F)(F)F)cc1)S(=O)(=O)c1ccc(O)c2ncccc12", "note": "[Example 65, N-[(4-(trifluoromethyl)phenyl)methyl]-8-hydroxy-N-methyl-quinoline-5-sulfonamide]", "Activity range (pIC50, COMT inhibition)": "+++ (a pIC50 of above about 7)"}, {"smiles": "O=S(=O)(c1ccc(O)c2ncccc12)N1CCN(c2nsc3ccccc23)CC1", "note": "[Example 98, 5-[4-(1,2-benzothiazol-3-yl)piperazin-1-yl]sulfonylquinolin-8-ol]", "Activity range (pIC50, COMT inhibition)": "++ (a pIC50 of from about great than 6 to 7)"}, {"smiles": "O=S(=O)(c1ccc(O)c2ncccc12)N1CCN(C(c2ccc(F)cc2)c2ccc(F)cc2)CC1", "note": "[Example 95, 5-[4-[bis(4-fluorophenyl)methyl]piperazin-1-yl]sulfonylquinolin-8-ol]", "Activity range (pIC50, COMT inhibition)": "+ (a pIC50 of from about 4.5 to 6)"}, {"smiles": "O=S(=O)(c1cccc(-c2ccc(F)c(Cl)c2)c1)c1ccc(O)c2ncccc12", "note": "[Example 24, 5-[3-(3-chloro-4-fluoro-phenyl)phenyl]sulfonylquinolin-8-ol]", "Activity range (pIC50, COMT inhibition)": "+++ (a pIC50 of above about 7)"}, {"smiles": "O=S(=O)(c1ccc(O)c2ncccc12)N1CCCC1c1ccccc1", "note": "(stereo not drawn) [Example 58, 5-(2-phenylpyrrolidin-1-yl)sulfonylquinolin-8-ol]", "Activity range (pIC50, COMT inhibition)": "+++ (a pIC50 of above about 7)"}, {"smiles": "O=S(=O)(c1ccc(O)c2ncccc12)N1CCC(c2ccc(F)cc2)C1", "note": "(stereo not drawn) [Example 62, 5-(3-(4-fluorophenyl)pyrrolidin-1-yl)sulfonylquinolin-8-ol]", "Activity range (pIC50, COMT inhibition)": "+++ (a pIC50 of above about 7)"}, {"smiles": "O=S(=O)(c1cccc(-c2ccccc2)c1)c1ccc(O)c2ncccc12", "note": "[Example 6, 5-(3-phenylphenyl)sulfonylquinolin-8-ol]", "Activity range (pIC50, COMT inhibition)": "+++ (a pIC50 of above about 7)"}, {"smiles": "CN(Cc1ccccc1)S(=O)(=O)c1ccc(O)c2ncccc12", "note": "[Example 45, N-benzyl-8-hydroxy-N-methylquinoline-5-sulfonamide]", "Activity range (pIC50, COMT inhibition)": "+++ (a pIC50 of above about 7)"}, {"smiles": "O=S(=O)(c1ccc(O)c2ncccc12)C1CCN(c2ccc(F)cc2)CC1", "note": "[Example 37, 5-[[1-(4-fluorophenyl)-4-piperidyl]sulfonyl]quinolin-8-ol]", "Activity range (pIC50, COMT inhibition)": "++ (a pIC50 of from about great than 6 to 7)"}, {"smiles": "CN(Cc1ccc(F)cc1)S(=O)(=O)c1ccc(O)c2ncccc12", "note": "[Example 49, N-[(4-fluorophenyl)methyl]-8-hydroxy-N-methyl-quinoline-5-sulfonamide]", "Activity range (pIC50, COMT inhibition)": "+++ (a pIC50 of above about 7)"}, {"smiles": "O=S(=O)(c1cccnc1)c1ccc(O)c2ncccc12", "note": "[Example 19, 5-(3-pyridylsulfonyl)quinolin-8-ol]", "Activity range (pIC50, COMT inhibition)": "++ (a pIC50 of from about great than 6 to 7)"}, {"smiles": "O=S(=O)(c1ccc(O)c2ncccc12)N1CCC(O)(c2ccccc2)CC1", "note": "[Example 83, 5-[(4-hydroxy-4-phenyl-1-piperidyl)sulfonyl]quinolin-8-ol]", "Activity range (pIC50, COMT inhibition)": "+++ (a pIC50 of above about 7)"}, {"smiles": "CC(C)(C)OC(=O)N1CCN(S(=O)(=O)c2ccc(O)c3ncccc23)CC1", "note": "[Example 103, tert-butyl 4-[(8-hydroxy-5-quinolyl)sulfonyl]piperazine-1-carboxylate]", "Activity range (pIC50, COMT inhibition)": "++ (a pIC50 of from about great than 6 to 7)"}, {"smiles": "O=S(=O)(c1ccc(O)c2ncccc12)C1CCNCC1", "note": "[Example 34, 5-(4-piperidylsulfonyl)quinolin-8-ol]", "Activity range (pIC50, COMT inhibition)": "++ (a pIC50 of from about great than 6 to 7)"}, {"smiles": "O=C(c1ccccc1)C1CCN(S(=O)(=O)c2ccc(O)c3ncccc23)CC1", "note": "[Example 85, [1-[(8-hydroxy-5-quinolyl)sulfonyl]-4-piperidyl]-phenyl-methanone]", "Activity range (pIC50, COMT inhibition)": "+++ (a pIC50 of above about 7)"}, {"smiles": "Cc1cccc(N2CCC(S(=O)(=O)c3ccc(O)c4ncccc34)CC2)c1C", "note": "[Example 39, 5-[[1-(2,3-dimethylphenyl)-4-piperidyl]sulfonyl]quinolin-8-ol]", "Activity range (pIC50, COMT inhibition)": "+++ (a pIC50 of above about 7)"}, {"smiles": "O=S(=O)(c1ccc(O)c2ncccc12)N1CCN(c2ccc(F)cc2)CC1", "note": "[Example 96, 5-[4-(4-fluorophenyl)piperazin-1-yl]sulfonylquinolin-8-ol]", "Activity range (pIC50, COMT inhibition)": "++ (a pIC50 of from about great than 6 to 7)"}, {"smiles": "CN(CCc1ccccc1)S(=O)(=O)c1ccc(O)c2ncccc12", "note": "[Example 48, 8-hydroxy-N-methyl-N-phenethyl-quinoline-5-sulfonamide]", "Activity range (pIC50, COMT inhibition)": "+++ (a pIC50 of above about 7)"}, {"smiles": "C[C@H](c1ccccc1)N(C)S(=O)(=O)c1cc(Cl)c(O)c2ncccc12", "note": "[Example 117, 7-chloro-8-hydroxy-N-methyl-N-[(1R)-1-phenylethyl]quinoline-5-sulfonamide]", "Activity range (pIC50, COMT inhibition)": "++ (a pIC50 of from about great than 6 to 7)"}, {"smiles": "O=S(=O)(c1ccc(O)c2ncccc12)N1CCCC1C1CCCCC1", "note": "(stereo not drawn) [Example 76, 5-(2-cyclohexylpyrrolidin-1-yl)sulfonylquinolin-8-ol]", "Activity range (pIC50, COMT inhibition)": "+++ (a pIC50 of above about 7)"}, {"smiles": "O=S(=O)(c1cccc(-c2cccc3ncccc23)c1)c1ccc(O)c2ncccc12", "note": "[Example 25, 5-[3-(5-quinolyl)phenyl]sulfonylquinolin-8-ol]", "Activity range (pIC50, COMT inhibition)": "+++ (a pIC50 of above about 7)"}, {"smiles": "Cc1ccc(C)c(N2CCN(S(=O)(=O)c3ccc(O)c4ncccc34)CC2)c1", "note": "[Example 93, 5-[4-(2,5-dimethylphenyl)piperazin-1-yl]sulfonylquinolin-8-ol]", "Activity range (pIC50, COMT inhibition)": "++ (a pIC50 of from about great than 6 to 7)"}, {"smiles": "O=S(=O)(c1ccc(Cl)c(Cl)c1)c1ccc(O)c2ncccc12", "note": "[Example 15, 5-(3,4-dichlorophenyl)sulfonylquinolin-8-ol]", "Activity range (pIC50, COMT inhibition)": "++ (a pIC50 of from about great than 6 to 7)"}, {"smiles": "CN(Cc1ccccc1F)S(=O)(=O)c1ccc(O)c2ncccc12", "note": "[Example 52, N-[(2-fluorophenyl)methyl]-8-hydroxy-N-methyl-quinoline-5-sulfonamide]", "Activity range (pIC50, COMT inhibition)": "+++ (a pIC50 of above about 7)"}]}]}
